Data from PMC10673624 (Current research in chemical biology, 2023).

Assays:
[1] = system: pSR and CLK2 localization, U118-MG and MDA-MB-435 cells; test: Immunofluorescence of pSR and CLK2 localization; assay type: cell-based; details: 500 nM, over the course of 60 min
CLK = details: ref SGC chemical probe website (thesgc.org/chemical-probes/MU1210, /T3-CLK); cited from earlier work
ERK8 (MAPK15) = ERK8 (MAPK15) (Homo sapiens, UniProt Q8TD08); test: KINOMEscan scanMAX binding
HIPK1 [2] = biological target: T1, HIPK1 (Homo sapiens, UniProt Q86Z02); test: Eurofins enzymatic assay; assay type: biochemical
T1 sequence (Q86Z02 whole entry): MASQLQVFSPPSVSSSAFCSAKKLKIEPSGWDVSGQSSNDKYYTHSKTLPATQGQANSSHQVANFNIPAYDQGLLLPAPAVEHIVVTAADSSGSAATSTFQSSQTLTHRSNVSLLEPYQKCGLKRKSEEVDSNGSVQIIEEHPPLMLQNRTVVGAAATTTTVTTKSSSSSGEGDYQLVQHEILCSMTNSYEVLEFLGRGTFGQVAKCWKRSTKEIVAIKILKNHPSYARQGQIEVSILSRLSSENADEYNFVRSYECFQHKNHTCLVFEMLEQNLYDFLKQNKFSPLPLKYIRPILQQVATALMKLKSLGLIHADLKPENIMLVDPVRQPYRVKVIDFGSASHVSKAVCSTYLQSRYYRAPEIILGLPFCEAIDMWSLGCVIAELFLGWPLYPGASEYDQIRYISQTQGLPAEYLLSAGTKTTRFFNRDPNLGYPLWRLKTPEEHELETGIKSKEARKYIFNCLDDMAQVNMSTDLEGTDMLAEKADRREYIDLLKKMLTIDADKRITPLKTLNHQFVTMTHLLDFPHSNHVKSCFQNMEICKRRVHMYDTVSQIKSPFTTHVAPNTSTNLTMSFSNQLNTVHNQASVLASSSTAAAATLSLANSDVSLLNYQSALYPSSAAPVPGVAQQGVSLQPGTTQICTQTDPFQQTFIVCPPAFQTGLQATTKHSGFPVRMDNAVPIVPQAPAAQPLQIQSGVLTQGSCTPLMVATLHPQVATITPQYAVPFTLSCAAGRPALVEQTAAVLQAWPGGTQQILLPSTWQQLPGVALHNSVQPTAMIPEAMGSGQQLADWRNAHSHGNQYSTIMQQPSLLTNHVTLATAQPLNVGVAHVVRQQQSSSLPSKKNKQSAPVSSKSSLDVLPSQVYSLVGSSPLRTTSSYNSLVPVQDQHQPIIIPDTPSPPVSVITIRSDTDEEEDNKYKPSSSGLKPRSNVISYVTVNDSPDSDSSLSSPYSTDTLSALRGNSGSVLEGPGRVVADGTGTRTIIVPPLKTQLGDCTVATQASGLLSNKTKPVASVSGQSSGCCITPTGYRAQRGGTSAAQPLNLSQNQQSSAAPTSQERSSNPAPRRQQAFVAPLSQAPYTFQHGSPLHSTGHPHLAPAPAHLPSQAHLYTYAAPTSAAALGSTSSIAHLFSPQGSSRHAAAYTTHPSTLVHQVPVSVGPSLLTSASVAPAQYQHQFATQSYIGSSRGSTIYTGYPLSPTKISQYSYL

HIPK2 [3] = biological target: T2, HIPK2 (Homo sapiens, UniProt Q9H2X6); test: Eurofins enzymatic assay; assay type: biochemical
T2 sequence (Q9H2X6 whole entry): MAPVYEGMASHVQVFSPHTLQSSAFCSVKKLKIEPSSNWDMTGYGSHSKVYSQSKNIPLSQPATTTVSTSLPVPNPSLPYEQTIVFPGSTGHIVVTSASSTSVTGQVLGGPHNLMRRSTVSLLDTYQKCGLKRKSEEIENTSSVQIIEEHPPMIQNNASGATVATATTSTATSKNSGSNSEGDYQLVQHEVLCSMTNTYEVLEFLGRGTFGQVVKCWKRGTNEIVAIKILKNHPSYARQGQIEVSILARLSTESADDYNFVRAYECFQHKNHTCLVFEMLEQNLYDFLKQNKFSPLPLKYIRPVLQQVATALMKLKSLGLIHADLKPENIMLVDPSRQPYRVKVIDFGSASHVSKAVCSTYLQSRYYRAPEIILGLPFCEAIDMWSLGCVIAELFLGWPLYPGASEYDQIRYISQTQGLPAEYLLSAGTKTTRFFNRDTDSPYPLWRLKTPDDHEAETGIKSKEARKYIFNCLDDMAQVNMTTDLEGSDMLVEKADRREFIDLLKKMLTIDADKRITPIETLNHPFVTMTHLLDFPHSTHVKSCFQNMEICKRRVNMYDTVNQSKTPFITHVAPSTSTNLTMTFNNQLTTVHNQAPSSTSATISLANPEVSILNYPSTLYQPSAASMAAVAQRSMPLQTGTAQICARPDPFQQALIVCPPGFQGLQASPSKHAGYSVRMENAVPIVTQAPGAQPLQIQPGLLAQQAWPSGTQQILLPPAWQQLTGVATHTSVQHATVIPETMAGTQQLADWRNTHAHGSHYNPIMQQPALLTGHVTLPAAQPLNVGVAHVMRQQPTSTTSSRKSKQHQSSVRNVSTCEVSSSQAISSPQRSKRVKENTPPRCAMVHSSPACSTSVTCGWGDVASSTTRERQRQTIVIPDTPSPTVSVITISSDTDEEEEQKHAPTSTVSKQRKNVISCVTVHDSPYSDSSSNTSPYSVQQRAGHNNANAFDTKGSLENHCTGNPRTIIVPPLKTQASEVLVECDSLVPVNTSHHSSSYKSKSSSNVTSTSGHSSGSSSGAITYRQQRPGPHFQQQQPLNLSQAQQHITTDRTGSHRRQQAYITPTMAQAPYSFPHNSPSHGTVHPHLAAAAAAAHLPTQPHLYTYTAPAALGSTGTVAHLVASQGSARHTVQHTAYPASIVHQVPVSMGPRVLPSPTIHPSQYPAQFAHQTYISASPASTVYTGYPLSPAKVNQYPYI

STK16 [4] = biological target: T3, STK16 (Homo sapiens, UniProt O75716); test: Eurofins enzymatic assay; assay type: biochemical
T3 sequence (O75716 whole entry): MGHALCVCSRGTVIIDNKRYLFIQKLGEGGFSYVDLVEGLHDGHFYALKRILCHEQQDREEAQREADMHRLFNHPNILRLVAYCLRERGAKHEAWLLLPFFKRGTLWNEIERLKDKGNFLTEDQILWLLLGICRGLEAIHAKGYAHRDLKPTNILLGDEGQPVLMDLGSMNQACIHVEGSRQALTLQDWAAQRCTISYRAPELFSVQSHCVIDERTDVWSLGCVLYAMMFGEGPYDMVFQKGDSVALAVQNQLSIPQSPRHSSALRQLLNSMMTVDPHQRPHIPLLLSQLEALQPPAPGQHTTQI

CLK1 [5] = biological target: T4, CLK1 (Homo sapiens, UniProt P49759); test: NanoBRET in-cell target engagement; assay type: cell-based
T4 sequence (P49759 whole entry): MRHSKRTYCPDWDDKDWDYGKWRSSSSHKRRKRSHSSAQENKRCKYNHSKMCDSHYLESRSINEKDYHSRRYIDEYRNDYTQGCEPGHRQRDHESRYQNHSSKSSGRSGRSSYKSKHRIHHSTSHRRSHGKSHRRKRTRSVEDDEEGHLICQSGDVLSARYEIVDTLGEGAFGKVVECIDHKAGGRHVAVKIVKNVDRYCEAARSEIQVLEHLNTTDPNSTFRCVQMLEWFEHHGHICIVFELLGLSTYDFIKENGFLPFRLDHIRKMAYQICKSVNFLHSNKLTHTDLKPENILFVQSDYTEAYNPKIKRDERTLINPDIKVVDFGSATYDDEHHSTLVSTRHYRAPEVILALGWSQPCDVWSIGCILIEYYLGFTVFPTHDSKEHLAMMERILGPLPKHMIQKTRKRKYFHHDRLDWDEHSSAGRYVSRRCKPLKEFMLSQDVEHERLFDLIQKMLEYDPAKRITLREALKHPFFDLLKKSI

HIPK1 [6] = biological target: T1, HIPK1; test: NanoBRET in-cell target engagement; assay type: cell-based
HIPK2 [7] = biological target: T2, HIPK2; test: NanoBRET in-cell target engagement; assay type: cell-based
STK16 [8] = biological target: T3, STK16; test: NanoBRET in-cell target engagement; assay type: cell-based
U118-MG = test: Crystal violet cell proliferation; assay type: cell-based; details: denoted concentrations, 7 days (Fig. 6a)
MDA-MB-435 = test: Crystal violet cell proliferation; assay type: cell-based; details: MDA-MB-435, denoted concentrations, 7 days (Fig. 6a)
BT-20 = test: Crystal violet cell proliferation; assay type: cell-based; details: BT-20, denoted concentrations, 7 days (Fig. 6a)
[9] = system: SR phosphorylation (pSR), U118-MG cells; test: Western blot of phosphorylated SR proteins; assay type: cell-based
[10] = system: CLK2 or pSR distribution, BT-20; test: Immunofluorescence of pSR and CLK2 localization; assay type: cell-based
[11] = system: 100 different cancer cell lines; test: ProQinase CL100 cancer cell line panel; assay type: cell-based; details: of 100 cell lines tested, CellTiter-Glo
[12] = system: 403 wildtype (WT) human as well as several mutant and nonhuman kinases; assay type: binding; details: no kinase bound below this PoC
CLK1 [13] = biological target: T4, CLK1; test: Eurofins enzymatic assay; assay type: biochemical
CLK2 [14] = biological target: T5, CLK2 (Homo sapiens, UniProt P49760); test: Eurofins enzymatic assay; assay type: biochemical
T5 sequence (P49760 whole entry): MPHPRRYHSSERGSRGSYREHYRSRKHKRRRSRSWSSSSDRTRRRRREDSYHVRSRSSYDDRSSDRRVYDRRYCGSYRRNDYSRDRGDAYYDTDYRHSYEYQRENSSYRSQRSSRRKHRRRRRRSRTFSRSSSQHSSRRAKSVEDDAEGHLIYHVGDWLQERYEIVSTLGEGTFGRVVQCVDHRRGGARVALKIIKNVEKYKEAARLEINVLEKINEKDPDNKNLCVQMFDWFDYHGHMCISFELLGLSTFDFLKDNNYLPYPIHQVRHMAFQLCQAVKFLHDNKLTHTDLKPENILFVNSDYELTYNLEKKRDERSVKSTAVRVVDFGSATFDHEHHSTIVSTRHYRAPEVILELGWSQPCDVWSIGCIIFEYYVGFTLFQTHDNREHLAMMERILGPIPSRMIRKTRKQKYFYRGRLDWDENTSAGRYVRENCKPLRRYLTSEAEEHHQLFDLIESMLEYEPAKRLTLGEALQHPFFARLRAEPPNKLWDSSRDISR

CLK3 = CLK3 (Homo sapiens, UniProt P49761); test: Eurofins enzymatic assay; assay type: biochemical
CLK4 [15] = biological target: T6, CLK4 (Homo sapiens, UniProt Q9HAZ1); test: Eurofins enzymatic assay; assay type: biochemical
T6 sequence (Q9HAZ1 whole entry): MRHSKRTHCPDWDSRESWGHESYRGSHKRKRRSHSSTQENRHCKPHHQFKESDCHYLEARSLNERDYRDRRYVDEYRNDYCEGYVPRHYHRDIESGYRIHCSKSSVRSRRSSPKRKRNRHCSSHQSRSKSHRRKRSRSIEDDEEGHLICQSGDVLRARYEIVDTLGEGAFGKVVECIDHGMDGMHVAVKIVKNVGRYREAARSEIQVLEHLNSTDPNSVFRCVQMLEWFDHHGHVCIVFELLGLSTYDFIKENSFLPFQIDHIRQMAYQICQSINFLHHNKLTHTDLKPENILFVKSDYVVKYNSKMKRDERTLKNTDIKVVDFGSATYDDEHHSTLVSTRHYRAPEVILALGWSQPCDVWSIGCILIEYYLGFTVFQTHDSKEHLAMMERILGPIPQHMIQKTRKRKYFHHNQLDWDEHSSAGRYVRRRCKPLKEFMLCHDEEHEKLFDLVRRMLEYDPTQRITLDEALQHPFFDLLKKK

CLK2 [16] = biological target: T5, CLK2; test: NanoBRET in-cell target engagement; assay type: cell-based
CLK4 [17] = biological target: T6, CLK4; test: NanoBRET in-cell target engagement; assay type: cell-based
CLK1 [18] = biological target: T4, CLK1; test: Luceome KinaseSeeker binding; details: read-out: KinaseSeeker activity remaining
CLK2 [19] = biological target: T5, CLK2; test: Luceome KinaseSeeker binding; details: read-out: KinaseSeeker activity remaining
CLK4 [20] = test: Luceome KinaseSeeker binding; details: CLK4, 1 μM

Sequence of ERK8 (MAPK15) (Q8TD08 whole entry): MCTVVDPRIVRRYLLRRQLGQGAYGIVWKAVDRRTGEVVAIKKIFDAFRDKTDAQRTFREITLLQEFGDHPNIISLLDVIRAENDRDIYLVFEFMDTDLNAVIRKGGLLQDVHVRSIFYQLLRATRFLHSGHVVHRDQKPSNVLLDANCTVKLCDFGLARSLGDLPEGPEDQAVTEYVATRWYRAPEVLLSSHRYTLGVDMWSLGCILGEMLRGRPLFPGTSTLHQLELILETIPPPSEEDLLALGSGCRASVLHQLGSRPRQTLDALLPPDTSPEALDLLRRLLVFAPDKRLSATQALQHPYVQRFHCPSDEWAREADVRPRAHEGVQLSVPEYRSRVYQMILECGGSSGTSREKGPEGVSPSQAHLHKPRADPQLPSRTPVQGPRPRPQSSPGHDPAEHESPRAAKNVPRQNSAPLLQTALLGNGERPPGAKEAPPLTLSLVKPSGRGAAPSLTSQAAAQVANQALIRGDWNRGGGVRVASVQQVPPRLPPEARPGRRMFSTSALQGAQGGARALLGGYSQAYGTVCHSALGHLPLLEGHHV

Structure (SMILES): Cn1cc(-c2ccc3occ(-c4cccc(-c5ccncc5)c4)c3n2)cn1 [Compound 1, reference compound]
- Effect on pSR and CLK2 localization [1]: did not show any effect on pSR or CLK2 localization
- Activity in the CLK nanoBRET assays (CLK): active

Structure (SMILES): COc1cc(Nc2nccc(-c3cnn4nc(OC)ccc34)n2)cc(C(F)(F)F)c1 [SGC-CLK-1, N-(3-methoxy-5-(trifluoromethyl)phenyl)-4-(6-methoxypyrazolo[1,5-b]pyridazin-3-yl) pyrimidin-2-amine]
- % Control (1 μM) (ERK8 (MAPK15); ERK8 (MAPK15), 1 μM): 21%
- remaining binding at 1 µM (ERK8 (MAPK15); read-out: % Control (1 μM), ERK8 (MAPK15), 1 μM): < 35%
- IC50 (HIPK1 [2]): 50 nM
- IC50 (HIPK2 [3]): 42 nM
- IC50 (STK16 [4]): 49 nM
- IC50 (CLK1 [5]; Cellular IC50 (NanoBRET), CLK1, HEK293, Tracer K5): 154 ± 50 nM
- IC50 (HIPK1 [6]): > 10 µM
- IC50 (HIPK2 [7]): > 10 µM
- NanoBRET binding (in words) (STK16 [8]): only partial inhibition
- Effect on cell growth (crystal violet) (U118-MG): dose-dependent decrease in the growth
- Effect on cell growth (crystal violet) (MDA-MB-435): dose-dependent decrease in the growth
- Effect on cell growth (crystal violet) (BT-20): no growth change
- Change in SR phosphorylation (pSR) ([9]; 1 μM, highest treatment condition): did not detect significant pSR changes
- Change in SR phosphorylation (pSR) ([9]; 5 μM, 30 min post treatment, U118-MG): decrease in SR phosphorylation
- Effect on pSR and CLK2 localization [1]: significant changes in the cellular distribution of both pSRs and CLK2
- Effect on CLK2 or pSR distribution [10]: did not observe a difference in CLK2 or pSR distribution
- Cell lines with IC50 for inhibiting proliferation <250 nM [11]: 27/100

Structure (SMILES): CCOc1ccc2c(-c3cc(C)nc(Nc4cc(OC)cc(C(F)(F)F)c4)n3)cnn2n1 [SGC-CLK-1N, 4-(6-ethoxypyrazolo [1,5-b]pyridazin-3-yl)-N-(3-methoxy-5-(trifluoromethyl)phenyl)-6-methylpyrimidin-2-amine]
- PoC of any kinase in the KINOMEscan panel [12]: ≥ 45
- Enzymatic inhibition (in words) (CLK1 [13]): no inhibition
- Enzymatic inhibition (in words) (CLK2 [14]): no inhibition
- Enzymatic inhibition (in words) (CLK3): no inhibition
- Enzymatic inhibition (in words) (CLK4 [15]): no inhibition
- NanoBRET activity (in words) (CLK1 [5]; CLK1): inactive
- NanoBRET activity (in words) (CLK2 [16]): inactive
- NanoBRET activity (in words) (CLK4 [17]): inactive
- remaining activity at 1 µM (CLK1 [18]): 100%
- remaining activity at 1 µM (CLK2 [19]): 100%
- KinaseSeeker activity remaining (CLK4 [20]): 100%
- Effect on cell growth (crystal violet) (U118-MG): little effect
- Effect on cell growth (crystal violet) (MDA-MB-435): little effect
- Effect on CLK2 or pSR distribution [10]: did not observe a difference in CLK2 or pSR distribution
